Measurements as given in patent US12404283B2, “c-MYC mRNA translation modulators and uses thereof in the treatment of cancer” (Anima Biotech Inc., priority 2022, dated 2025).

Test system: c-Myc
Assay: c-Myc immunofluorescence assay
Format: cell-based, human
Conditions: A549 cells, 24 hours treatment, anti-c-Myc immunofluorescence
Protocol: A549 human non-small cell lung carcinoma cells were treated for 24 hours with increasing compound concentration, cells were fixed and stained with a nuclei stain (DAPI) and anti-c-Myc fluorescent antibody. The c-Myc signal was quantified by image analysis, and data was exported and analyzed using TIBCO Spotfire® (TIBCO Corporation). Dose response curves were generated and fitted with logaristic regression to calculate potency (EC50 values). Potency values are presented in Table 2 for all compounds and are shown for selected compounds (FIG. 4).
A549 cells were grown in 384-wells plates (Perkin Elmer, Cat. 6057300) for 48 hours, treated with compounds and then fixed for 20 min in 4% paraformaldehyde. After that permeabilization was done using 0.1% Triton X-100 in PBS for 20 min. Primary anti-c-Myc antibody (Abcam, ab32072) staining was performed for 90 min at room temperature. Cells then were washed twice with PBS and incubated with secondary antibody (Abcam, ab150075) for 90 min at room temperature. Nuclei were stained with DAPI for 10 min and washed twice with PBS.
Cell images were taken with Operetta (Perkin Elmer, USA), a wide-field fluorescence microscope at 20× magnification. After acquisition, the images were transferred to Columbus software (Perkin-Elmer) for image analysis. In Columbus, cells were identified by their nucleus, using the “Find Nuceli” module and cytoplasm was detected based on the secondary antibody channel. Subsequently, the fluorescent signal was enumerated in the identified cell region. Then data was exported to a data analysis and visualization software, Tibco Spotfire, USA.

Row | Structure (SMILES) | Myc Efficacy (−LogEC50)
1 | O=C(NCCCN1CCC(F)CC1)c1ccc2c(c1)sc1nc(-c3ccc(C4CC(O)CN4)cc3F)cn12 (stereo not shown) [Compound 493, 2-(2-fluoro-4-(4-hydroxypyrrolidin-2-yl)phenyl)-N-(3-(4-fluoropiperidin-1-yl)propyl)benzo[d]imidazo[2,1-b]thiazole-7-carboxamide] | +++ (+++ ≥6)
2 | CNC(=O)c1ccc2c(c1)sc1nc(-c3ccc(C4CCCN4)cc3F)cn12 (stereo not shown) [Compound 498, 2-(2-fluoro-4-(pyrrolidin-2-yl)phenyl)-N-methylbenzo[d]imidazo[2,1-b]thiazole-7-carboxamide] | +++ (+++ ≥6)
3 | CN1CCC(NC(=O)c2ccc3c(c2)sc2nc(-c4ccc(C5CCCN5)cc4F)cn23)CC1 (stereo not shown) [Compound 500, 2-(2-fluoro-4-(pyrrolidin-2-yl)phenyl)-N-(1-methylpiperidin-4-yl)benzo[d]imidazo[2,1-b]thiazole-7-carboxamide] | +++ (+++ ≥6)
4 | O=C(NCCCN1CCC(F)CC1)c1cc2sc3nc(-c4ccc(C5CCCN5)cc4F)cn3c2cn1 (stereo not shown) [Compound 501, 2-(2-fluoro-4-(pyrrolidin-2-yl)phenyl)-N-(3-(4-fluoropiperidin-1-yl)propyl)imidazo[2′,1′:2,3]thiazolo[4,5-c]pyridine-7-carboxamide] | +++ (+++ ≥6)
5 | CN1CCC(NC(=O)c2ccc3c(c2)sc2nc(-c4ccc([C@H]5CCCN5)cc4F)cn23)CC1 [Compound 503R, (R)-2-(2-fluoro-4-(pyrrolidin-2-yl)phenyl)-N-(1-methylpiperidin-4-yl)benzo[d]imidazo[2,1-b]thiazole-7-carboxamide] | +++ (+++ ≥6)
6 | CN1CCC(NC(=O)c2ccc3c(c2)sc2nc(-c4ccc([C@@H]5CCCN5)cc4F)cn23)CC1 [Compound 503S, (S)-2-(2-fluoro-4-(pyrrolidin-2-yl)phenyl)-N-(1-methylpiperidin-4-yl)benzo[d]imidazo[2,1-b]thiazole-7-carboxamide] | +++ (+++ ≥6)
7 | CNC(=O)c1ccc2c(c1)sc1nc(-c3ccc(C4CCNC4)cc3F)cn12 (stereo not shown) [Compound 504, 2-(2-fluoro-4-(pyrrolidin-3-yl)phenyl)-N-methylbenzo[d]imidazo[2,1-b]thiazole-7-carboxamide] | +++ (+++ ≥6)
8 | CN1CCC(NC(=O)c2ccc3c(c2)sc2nc(-c4ccc(C5CCNC5)cc4F)cn23)CC1 (stereo not shown) [Compound 505, 2-(2-fluoro-4-(pyrrolidin-3-yl)phenyl)-N-(1-methylpiperidin-4-yl)benzo[d]imidazo[2,1-b]thiazole-7-carboxamide] | +++ (+++ ≥6)
9 | CN1CC(NC(=O)c2ccc3c(c2)sc2nc(-c4ccc(C5CCCN5)cc4F)cn23)C1 (stereo not shown) [Compound 506, 2-(2-fluoro-4-(pyrrolidin-2-yl)phenyl)-N-(1-methylazetidin-3-yl)benzo[d]imidazo[2,1-b]thiazole-7-carboxamide] | +++ (+++ ≥6)
10 | O=C1CNC(c2ccc(-c3cn4c(n3)sc3cc(C(=O)NCCCN5CCC(F)CC5)ccc34)c(F)c2)C1 (stereo not shown) [Compound 507, 2-(2-fluoro-4-(4-oxopyrrolidin-2-yl)phenyl)-N-(3-(4-fluoropiperidin-1-yl)propyl)benzo[d]imidazo[2,1-b]thiazole-7-carboxamide] | +++ (+++ ≥6)
11 | O=C(NCCCN1CCC(F)CC1)c1ccc2c(c1)sc1nc(-c3ccc(C4CCNCC4)cc3F)cn12 [Compound 508, 2-(2-fluoro-4-(piperidin-4-yl)phenyl)-N-(3-(4-fluoropiperidin-1-yl)propyl)benzo[d]imidazo[2,1-b]thiazole-7-carboxamide] | +++ (+++ ≥6)
12 | O=C(NCCCN1CCC(F)CC1)c1cc2sc3nc(-c4ccc([C@H]5CCCN5)cc4F)cn3c2cn1 [Compound 509R, (R)-2-(2-fluoro-4-(pyrrolidin-2-yl)phenyl)-N-(3-(4-fluoropiperidin-1-yl)propyl)imidazo[2′,1′:2,3]thiazolo[4,5-c]pyridine-7-carboxamide] | +++ (+++ ≥6)
13 | O=C(NCCCN1CCC(F)CC1)c1cc2sc3nc(-c4ccc([C@@H]5CCCN5)cc4F)cn3c2cn1 [Compound 509S, (S)-2-(2-fluoro-4-(pyrrolidin-2-yl)phenyl)-N-(3-(4-fluoropiperidin-1-yl)propyl)imidazo[2′,1′:2,3]thiazolo[4,5-c]pyridine-7-carboxamide] | +++ (+++ ≥6)
14 | O=C(NC1CCOCC1)c1ccc2c(c1)sc1nc(-c3ccc(C4CCCN4)cc3F)cn12 (stereo not shown) [Compound 510, 2-(2-fluoro-4-(pyrrolidin-2-yl)phenyl)-N-(tetrahydro-2H-pyran-4-yl)benzo[d]imidazo[2,1-b]thiazole-7-carboxamide] | +++ (+++ ≥6)
15 | NC(=O)c1ccc2c(c1)sc1nc(-c3ccc(C4CCNC4)cc3F)cn12 (stereo not shown) [Compound 511, 2-(2-fluoro-4-(pyrrolidin-3-yl)phenyl)benzo[d]imidazo[2,1-b]thiazole-7-carboxamide] | +++ (+++ ≥6)
16 | O=C(NCCCN1CCC(F)CC1)c1ccc2c(c1)sc1nc(-c3ccc(C4(O)CCNCC4)cc3F)cn12 [Compound 512, 2-(2-fluoro-4-(4-hydroxypiperidin-4-yl)phenyl)-N-(3-(4-fluoropiperidin-1-yl)propyl)benzo[d]imidazo[2,1-b]thiazole-7-carboxamide] | +++ (+++ ≥6)
17 | O=C(NCCCN1CCC(F)CC1)c1ccc2c(c1)sc1nc(-c3ccc(C4CCCNC4)cc3F)cn12 (stereo not shown) [Compound 513, 2-(2-fluoro-4-(piperidin-3-yl)phenyl)-N-(3-(4-fluoropiperidin-1-yl)propyl)benzo[d]imidazo[2,1-b]thiazole-7-carboxamide] | +++ (+++ ≥6)
18 | NC(=O)c1cc2sc3nc(-c4ccc(C5CCCN5)cc4F)cn3c2cn1 (stereo not shown) [Compound 514, 2-(2-fluoro-4-(pyrrolidin-2-yl)phenyl)imidazo[2′,1′:2,3]thiazolo[4,5-c]pyridine-7-carboxamide] | +++ (+++ ≥6)
19 | CNC(=O)c1cc2sc3nc(-c4ccc(C5CCCN5)cc4F)cn3c2cn1 (stereo not shown) [Compound 515, 2-(2-fluoro-4-(pyrrolidin-2-yl)phenyl)-N-methylimidazo[2′,1′:2,3]thiazolo[4,5-c]pyridine-7-carboxamide] | +++ (+++ ≥6)
20 | O=C(NCCCN1CCC(F)CC1)c1ccc2c(c1)sc1nc(-c3ccc(C4(O)CCNC4)cc3F)cn12 (stereo not shown) [Compound 516, 2-(2-fluoro-4-(3-hydroxypyrrolidin-3-yl)phenyl)-N-(3-(4-fluoropiperidin-1-yl)propyl)benzo[d]imidazo[2,1-b]thiazole-7-carboxamide] | +++ (+++ ≥6)
21 | CN1CCC(NC(=O)c2ccc3c(c2)sc2nc(-c4ccc(C5COCCN5)cc4F)cn23)CC1 (stereo not shown) [Compound 517, 2-(2-fluoro-4-(morpholin-3-yl)phenyl)-N-(1-methylpiperidin-4-yl)benzo[d]imidazo[2,1-b]thiazole-7-carboxamide] | +++ (+++ ≥6)
22 | CN1CCC(NC(=O)c2ccc3c(c2)sc2nc(-c4ccc(C5CNCCO5)cc4F)cn23)CC1 (stereo not shown) [Compound 519, 2-(2-fluoro-4-(morpholin-2-yl)phenyl)-N-(1-methylpiperidin-4-yl)benzo[d]imidazo[2,1-b]thiazole-7-carboxamide] | +++ (+++ ≥6)
